Source: patent US6086849A, “Technetium-99m labeled peptides for imaging” (Diatide, Inc., priority 1995, dated 2000)

Tests used:
[1] = system: deep vein thrombus (femoral vein, embolization coil); experiment: In vivo imaging of deep vein thrombosis in a canine model; set-up: species or system dog
Description: Mongrel dogs (25-35 lb., fasted overnight) were sedated with a combination of ketamine and aceprozamine intramuscularly and then anesthetized with sodium pentobarbital intravenously. An 18-gauge angiocath was inserted in the distal half of the right femoral vein and an 8 mm Dacron®-entwinedstainless steel embolization coil (Cook Co., Bloomington Ind.) was placed in the femoral vein at approximately mid-femur in each animal. The catheter was removed, the wound sutured and the placement of the coil documented by X-ray. The animals were then allowed to recover overnight.
One day following coil placement, each animal was re-anesthetized, intravenous saline drips placed in each foreleg and a urinary bladder catheter inserted to collect urine. The animal was placed supine under a gamma camera which was equipped with a low-energy, all purpose collimator and photopeaked for Tc-99m. Images were acquired on a NucLear Mac computer system.
Tc-99m labeled P357 [(CH2 CO--YD.Apc.GDCGGCAcm GCAcm GGC.amide)2 -[BAT-BS]] [185-370 MBq (5-10 mCi) Tc-99m and 0.2-0.4 mg P357] was injected into one foreleg intravenous line at its point of insertion. The second line was maintained for blood collection. Anterior images over the legs were acquired for 500,000 counts or 20 min (whichever was shorter), at approximately 10-20 min, and at approximately 1, 2, 3 and 4 h post-injection. Following the collection of the final image, each animal was deeply anesthetized with pentobarbital. Two blood samples were collected on a cardiac puncture using a heparinized syringe followed by a euthanazing dose of saturated potassium chloride solution administered by intercardiac or bolus intravenous injection. The femoral vein containing the thrombus and samples of thigh muscle were then carefully dissected out. The thrombus was then dissected free of the vessel and placed in a pre-weighed test tube. The thrombus samples were then weighed and counted in a gamma well counter in the Tc-99m channel. Known fractions of the injected doses were counted as well.
Fresh thrombus weight, percent injected dose (%ID)/g in the thrombus and blood obtained just prior to euthanasia and thrombus/blood and thrombus/muscle ratios determined. Thrombus/background ratios were determined by analysis of the counts/pixel measured in regions-of-interest(ROI) drawn over the thrombus and adjacent muscle from computer-stored images.

atherosclerotic plaque = assay type: in vivo, New Zealand White rabbit
Method: Twenty-two New Zealand White (NZW) rabbits of both sexes and weighing 2-3 kg were divided into two groups. The control group consisted of 6 rabbits that were housed and fed commercial rabbit chow (Purina). Sixteen rabbits, the HC group, were fed a standardized, cholesterol-rich diet (rabbit chow mixed to a 1% w/w concentration of cholesterol) from seven weeks until 28 weeks of age. All animals were given water ad libitum.
Tc-99m labeled P215 ([BAT]RALVDTLKFVTQAEGAK.amide) was prepared as described above. Approximately 250-400 μg of peptide was labeled with 140-160 mCi of Tc-99m and prepared in unit doses of 7-8 mCi (12.5-20.0 μg/rabbit; 6-7 μg/kg) in 0.2 mL volume doses. Adult rabbits were dosed with Tc-99m labeled peptide intravenously in a lateral ear vein by slow bolus infusion (approximately 0.1 mL/min). A gamma camera fitted with a pin-hole collimator (5 mm aperture) and energy window set for Tc-99m and programmed to accumulate 500,000 counts or scan for a desired time. Shortly before imaging, animals were anesthetized with a mixture of ketamine and xylazine (5:1, 1 mL/kg intramuscularly).
Gamma camera images were collected at 40-45° just above the heart (left anterior oblique [LAO] view) to delineate the aortic arch and view the descending aorta. Images were acquired at 1 and 2 h and occasionally at 3 and 5 h after injection. Supplementary anesthesia was injected as needed prior to each image collection.
At 2.5 h (after a 2 h scan), animals were sacrificed with an intravenous dose of sodium pentobarbital. Upon necropsy, the aorta was removed and branching vessels dissected free from the aortic valve to the mid-abdominal region. Using a parallel hole collimator, the aorta was imaged ex corpora. Next, the aortae were opened longitudinally and stained with Sudan IV, thereby turning atherosclerotic plaque a deep red brick color. Lipid-free and uninjured aortic endothelium retains its normal, glistening white-pink appearance under these conditions.

[2] = Tc-99m labeled, i.v., tissues after final image (about 4 h), average ± SD

Substance	% ID/g Thrombus ([1]; Tc-99m labeled, i.v., thrombus dissected after final image (about 4 h), average ± SD)	Thrombus/Blood ratio [1, 2]	Thrombus/Muscle ratio [1, 2]	Thrombus/Background ratio ([1]; counts/pixel in ROI over thrombus and adjacent muscle from images, Tc-99m labeled, i.v., n = 1)	Time to clearly established localization of thrombus ([1]; post-injection)	Time of first indications of labeled peptide uptake in images ([1]; post-injection, anterior view over hind legs of one dog (FIG. 4))	Time to unequivocal localization in images ([1]; post-injection, one dog (FIG. 4), persisted until the end of the imaging period)	Persistence of thrombus localization ([1]; post-injection, with increasing contrast and focal definition)	Radioactivity accumulation in HC aortae imaged ex corpora (atherosclerotic plaque; HC-fed rabbits, aorta removed at 2.5 h)	Correlation of in vivo and ex corpora images with Sudan IV deposition patterns (atherosclerotic plaque; HC-treated rabbit aortae)	Imaging of atherosclerotic plaque (uptake) (atherosclerotic plaque; Tc-99m labeled)	Uptake in normal aortic tissue (atherosclerotic plaque; control (plaque-free) aortae)	Principal clearance pathway (atherosclerotic plaque; rabbit, in vivo)	Systemic clearance (atherosclerotic plaque; rabbit, in vivo, iv)
(CH2 CO--YD.Apc.GDCGGCAcm GCAcm GGC.amide)2 -[BAT-BS] [Compound P357]	0.016 ± 0.005 % ID/g	5.6 ± 1.4	17 ± 4.7	2.3	≤ 1 h	23 min	≤ 71 min	~4 h						
[BAT]RALVDTLKFVTQAEGAK.amide [Compound P215]									greatest deposition in the region of the aortic arch	Positive correlations	high uptake	minimal uptake	hepatobiliary system	rapid systemic clearance
